Measured values reported in PMC10331595 (Redox Biology, 2023).
Where two headings read alike, the source gives them in different places.

Test system: NK-LAAO (native Naja kaouthia L-amino acid oxidase)
Type: biochemical
Details: 100 mM Tris-HCl pH 8.5, 25 °C

N[C@@H](Cc1c[nH]c2ccccc12)C(=O)O [L-Trp]
Km (0.03125-1 mM substrate, 2 min): 471 ± 25.9 µM

CSCC[C@H](N)C(=O)O [L-Met]
Km (0.03125-4 mM substrate, 2 min): 587 ± 9.5 µM

N[C@@H](CCC(=O)O)C(=O)O [L-Glu]
Km (0.625-20 mM substrate, 240 min): 3560 ± 353 µM

N=C(N)NCCC[C@H](N)C(=O)O [L-Arg]
Km (0.125-4 mM substrate, 2 min): 3100 ± 448 µM

CC(C)C[C@H](N)C(=O)O [L-Leu]
Km (0.0625-4 mM substrate, 4 min): 637 ± 34.5 µM
